We go through ten compounds from patent publication US11052028B2, “Process for depigmenting keratin materials using thiopyridinone compounds” (L'OREAL, priority 2010, dated 2021).

The test system of data set [1] is coculture of keratinocytes and melanocytes. Nature of the data set: Cytotoxicity on coculture, estimated by leucine incorporation. It is filed as cell-based. As for the experimental part: (§1) The modulatory effect of each compound on melanogenesis was measured according to the method described in FR-A-2734825 and also in the article by R. Schmidt, P. Krien and M. Regnier, Anal. Bichem., 235(2), 113-18,1996. This test is carried out on a coculture of keratinocytes and melanocytes.
(§2) For the compounds tested, the following were determined: • the cytotoxicity, by estimating leucine incorporation, • the inhibitory activity on melanin synthesis, by estimating the ratio of thiouracil incorporation to leucine incorporation, relative to 100% of the control (the control corresponds to the test carried out without test compound). The IC50 values (concentration for which 50% of the melanin synthesis is inhibited) were determined.
(§3) The test was also carried out with arbutin, niacinamide and kojic acid, which are known depigmenting compounds.

For data set [2] the test system is unchanged. Nature of the data set: Inhibitory activity on melanin synthesis (constitutive melanogenesis), ratio of thiouracil incorporation to leucine incorporation. It is filed as cell-based. The following applies: for efficacy in inhibiting melanogenesis compared with known depigmenting compounds: conclusion in words from the coculture test; for IC50: read-out: IC50 (concentration for which 50% of the melanin synthesis is inhibited). How it is done: as §1, §2, §3

The mark [3] stands for this setting: ratio of thiouracil to leucine incorporation, relative to 100% of the control, coculture of keratinocytes and melanocytes.

Entries after “also recorded” stand apart in the source; their conditions may differ. Where only a bound is given, the exact number is not on record here.

As to `CCCCCNC(=O)c1ccc[nH]c1=S` [Compound 7, N-pentyl-2-thioxo-1,2-dihydropyridine-3-carboxamide], the Cytotoxicity on coculture result in data set [1] was “Non-cytotoxic”. For the same compound, the “efficacy in inhibiting melanogenesis compared with known depigmenting compounds” value in data set [2] is “more effective than arbutin, kojic acid and niacinamide”. The IC50 in data set [2] (setting [3]) was determined as 32 µM.

For `NC(=O)c1cccnc1` [Niacinamide, reference compound], in data set [1], the Cytotoxicity on coculture result was “Non-cytotoxic”. Further, the “IC50 (concentration for which 50% of the melanin synthesis is inhibited)” value in data set [2] (setting [3]) is “Not attained”.

For `O=C(NC1CCCCC1)c1ccc[nH]c1=S` [Compound 12, N-cyclohexyl-2-thioxo-1,2-dihydropyridine-3-carboxamide], in data set [1], the Cytotoxicity on coculture result is “Non-cytotoxic”. Also, the “efficacy in inhibiting melanogenesis compared with known depigmenting compounds” value in data set [2] is “more effective than arbutin, kojic acid and niacinamide”. For the same compound, the IC50 in data set [2] (setting [3]) was found to be 37 µM.

For `O=C(NCC(O)CO)c1ccc[nH]c1=S` (stereo not drawn) [Compound 21, N-(2,3-dihydroxypropyl)-2-thioxo-1,2-dihydropyridine-3-carboxamide], the Cytotoxicity on coculture entry in data set [1] is on record as “Non-cytotoxic”. The “efficacy in inhibiting melanogenesis compared with known depigmenting compounds” value in data set [2] is “more effective than arbutin, kojic acid and niacinamide”. Moreover, in data set [2] (setting [3]), the IC50 was found to be 128 µM.

Regarding `O=c1cc(CO)occ1O` [Kojic acid, reference compound], the Cytotoxicity on coculture in data set [1] was 100 µM. In data set [2] (setting [3]), the IC50 is over 500 µM.

In the case of `O=C(NCCO)c1ccc[nH]c1=S` [Compound 19, N-(2-hydroxyethyl)-2-thioxo-1,2-dihydropyridine-3-carboxamide], the Cytotoxicity on coculture entry in data set [1] is “Non-cytotoxic”. Moreover, in data set [2], the “efficacy in inhibiting melanogenesis compared with known depigmenting compounds” value was “more effective than arbutin, kojic acid and niacinamide”. The IC50 in data set [2] (setting [3]) stood at 410 µM.

`OC[C@H]1O[C@@H](Oc2ccc(O)cc2)[C@H](O)[C@@H](O)[C@@H]1O` [Arbutin, reference compound]: the Cytotoxicity on coculture entry in data set [1] is reported as “Non-cytotoxic”. Further, the IC50 in data set [2] (setting [3]) was over 500 µM.

For the compound `CCNC(=O)c1ccc[nH]c1=S` [Compound 2, N-ethyl-2-thioxo-1,2-dihydropyridine-3-carboxamide], the Cytotoxicity on coculture result in data set [1] is on record as “Non-cytotoxic”. Also, the “efficacy in inhibiting melanogenesis compared with known depigmenting compounds” value in data set [2] is “more effective than arbutin, kojic acid and niacinamide; also recorded: the most effective compound”. Moreover, in data set [2] (setting [3]), the IC50 came out at 4.9 µM.

In the case of `COc1ccc(CCNC(=O)c2ccc[nH]c2=S)cc1` [Compound 16, N-[2-(4-methoxyphenyl)ethyl]-2-thioxo-1,2-dihydropyridine-3-carboxamide], the Cytotoxicity on coculture in data set [1] was 100 µM. For the same compound, the “efficacy in inhibiting melanogenesis compared with known depigmenting compounds” value in data set [2] was “more effective than arbutin, kojic acid and niacinamide”. Also, the IC50 in data set [2] (setting [3]) turned out to be 25 µM.

As to `CCN(CC)C(=O)c1ccc[nH]c1=S` [Compound 27, N,N-diethyl 2-mercaptonicotinamide], in data set [1], the Cytotoxicity on coculture result is “Non-cytotoxic”. For the same compound, the “efficacy in inhibiting melanogenesis compared with known depigmenting compounds” value in data set [2] is “more effective than arbutin, kojic acid and niacinamide”. For the same compound, in data set [2] (setting [3]), the IC50 was found to be 29 µM.
